According to ChEMBL document CHEMBL5154820 (Eur J Med Chem, 2022):
pIC50: −log10 of the molar value.

How the values were obtained:
[1] = biological target: Tubulin beta (Homo sapiens) (UniProt P68371+Q9H4B7+Q13509+P04350+Q3ZCM7+P07437+Q13885+Q9BVA1+Q9BUF5+A6NNZ2); experiment: Binding affinity to beta-tubulin colchicine binding site in human HeLa cells assessed as decrease of adduct formation by measuring gray value measured at 5 uM incubated for 2 hrs followed by addition of EBI measured after 1.5 hrs by EBI competition based Western blotting analysis; format: cell-based; settings: time 3.5 hrs
HeLa [2] = experiment: Antimigratory activity against human HeLa cells at 0.1 uM measured after 24 hrs by scratch wound healing based fluorescence inverted microscopic analysis; format: functional
[3] = Acute toxicity against ICR mouse assessed as regeneration of renal tubule in kidney at 1000 mg/kg, ip measured after 14 days by H and E staining method; format: organism-based; settings: in vivo, 336 h, time 14 day
HeLa [4] = experiment: Induction of cell cycle arrest in human HeLa cells assessed as 2N cells at 0.1 uM measured after 24 hrs by propidium iodide staining based flow cytometric analysis analysis ( Rvb = 47.4%); format: functional
HeLa [5] = experiment: Induction of cell cycle arrest in human HeLa cells assessed as S-phase at 0.2 uM measured after 24 hrs by propidium iodide staining based flow cytometric analysis analysis ( Rvb = 15.5%); format: functional
HeLa [6] = experiment: Induction of apoptosis in human HeLa cells assessed as late apoptotic cells at 0.4 uM measured after 24 hrs by Annexin V-FITC/7-AAD staining based flow cytometric analysis (reference value: 8.51%); format: functional
[7] = Nephrotoxicity in BABL/c mouse assessed as increased creatinine level at 30 mg/kg, ip administered daily for 21 days relative to vehicle; format: toxicity, organism-based; settings: in vivo, 504 h, time 21 day
HeLa [8] = experiment: Induction of cell cycle arrest in human HeLa cells assessed as accumulation of cells at G2/M phase at 0.2 uM after 24 hrs by propidium iodide staining based flow cytometric analysis (reference value: 20.3%); format: functional
HeLa [9] = experiment: Antitumour activity against human HeLa cells xenografted in BABL/c mouse assessed as reduction in tumor weight at 30 mg/kg, ip administered daily for 21 days followed by addition of 3 mg/kg DDP for every 2 days ( Rvb = 3.36 g); format: functional; settings: time 21 day, 504 h
[10] = Half life in C57 nude mouse at 30 mg/kg, ip measured at 0.083 to 24 hrs by LC/MS/MS analysis; format: ADME, organism-based; settings: in vivo, time 0.083-24 hrs
[11] = Acute toxicity against ICR mouse assessed as chronic progressive nephropathy in kidney at 1000 mg/kg, ip measured after 14 days by H and E staining method; format: organism-based; settings: in vivo, 336 h, time 14 day
[12] = Acute toxicity against ICR mouse assessed as focal necrosis in liver at 1000 mg/kg, ip measured after 14 days by H and E staining method; format: organism-based; settings: in vivo, 336 h, time 14 day
[13] = biological target: Voltage-gated inwardly rectifying potassium channel KCNH2 (Homo sapiens, UniProt Q12809); experiment: Inhibition of human ERG expressed in CHO cells with holding potential of -80 mV by whole cell patch clamp assay; format: toxicity, cell-based
SiHa = experiment: Potency index, ratio of cisplatin IC50 to test compound IC50 for cytotoxicity against human DDP resistant SiHa cells; format: functional
HeLa [14] = experiment: Induction of apoptosis in human HeLa cells assessed as early apoptotic cells at 0.4 uM measured after 24 hrs by Annexin V-FITC/7-AAD staining based flow cytometric analysis (reference value: 20.8%); format: functional
HeLa [15] = experiment: Induction of cell cycle arrest in human HeLa cells assessed as S-phase at 0.1 uM measured after 24 hrs by propidium iodide staining based flow cytometric analysis analysis ( Rvb = 15.5%); format: functional
HeLa [16] = experiment: Inhibition of colony formation in human HeLa cells at 50 nM and treated for every 48 hrs with fresh medium measured after 14 days by crystal violet staining method ( Rvb = 67.3%); format: functional; set-up: scale not given: the % may be the effect or the level left; settings: time 14 day
[17] = AUC(0 to t) in C57 nude mouse at 30 mg/kg, ip measured at 0.083 to 24 hrs by LC/MS/MS analysis; format: ADME, organism-based; set-up: dose 30 mg/kg, time upper 24 hrs, time lower 0.083 hrs, route ip; settings: in vivo
[18] = Nephrotoxicity in BABL/c mouse assessed as increased uric acid level at 30 mg/kg, ip administered daily for 21 days followed by addition of 3 mg/kg DDP for every 2 days relative to vehicle; format: toxicity, organism-based; settings: in vivo, 504 h, time 21 day
[19] = Toxicity against BABL/c mouse assessed as glomerular crescent hyperplasia in kidney at 60 mg/kg, ip administered daily for 21 days by H and E staining method; format: organism-based; settings: in vivo, 504 h, time 21 day
HeLa [20] = experiment: Inhibition of colony formation in human HeLa cells at 100 nM and treated for every 48 hrs with fresh medium measured after 14 days by crystal violet staining method; format: functional; set-up: scale not given: the % may be the effect or the level left; settings: time 14 day
[21] = MRT in C57 nude mouse at 30 mg/kg, ip measured at 0.083 to 24 hrs by LC/MS/MS analysis; format: ADME, organism-based; settings: in vivo, time 0.083-24 hrs
[22] = AUC(0 to infinity) in C57 nude mouse plasma at 30 mg/kg, ip measured at 0.083 to 24 hrs by LC/MS/MS analysis; format: ADME, organism-based; set-up: time lower 0.083 hrs, dose 30 mg/kg, time upper 24 hrs, route ip
[23] = Toxicity against BABL/c mouse assessed as morphological changes in lung at 30 to 60 mg/kg, ip administered daily for 21 days by H and E staining method; format: organism-based; settings: in vivo, 504 h, dose 30-60 mg/kg, time 21 day
HeLa [24] = experiment: Induction of apoptosis in human HeLa cells assessed as viable cells at 0.1 uM measured after 24 hrs by Annexin V-FITC/7-AAD staining based flow cytometric analysis (reference value: 70.1%); format: functional; settings: read-out: Activity
HeLa [25] = experiment: Induction of cell cycle arrest in human HeLa cells assessed as S-phase at 6 nM measured after 24 hrs by propidium iodide staining based flow cytometric analysis analysis ( Rvb = 23.4%); format: functional
HeLa [26] = experiment: Induction of cell cycle arrest in human HeLa cells assessed as >4N cells at 3 nM measured after 24 hrs by propidium iodide staining based flow cytometric analysis analysis relative to control; format: functional
HeLa [27] = experiment: Induction of apoptosis in human HeLa cells assessed as viable cells at 6 nM measured after 24 hrs by Annexin V-FITC/7-AAD staining based flow cytometric analysis (reference value: 75.5%); format: functional; settings: read-out: Activity
HeLa [28] = experiment: Induction of cell cycle arrest in human HeLa cells assessed as 4N cells at 6 nM measured after 24 hrs by propidium iodide staining based flow cytometric analysis analysis ( Rvb = 17.1%); format: functional
HeLa [29] = experiment: Induction of apoptosis in human HeLa cells assessed as early apoptotic cells at 1.5 nM measured after 24 hrs by Annexin V-FITC/7-AAD staining based flow cytometric analysis (reference value: 18.8%); format: functional
HeLa [30] = experiment: Induction of apoptosis in human HeLa cells assessed as late apoptotic cells at 3 nM measured after 24 hrs by Annexin V-FITC/7-AAD staining based flow cytometric analysis (reference value: 5.22%); format: functional
HeLa [31] = experiment: Induction of cell cycle arrest in human HeLa cells assessed as S-phase at 1.5 nM measured after 24 hrs by propidium iodide staining based flow cytometric analysis analysis ( Rvb = 23.4%); format: functional
HeLa [32] = experiment: Antimigratory activity against human HeLa cells at 6 nM measured after 24 hrs by scratch wound healing based fluorescence inverted microscopic analysis; format: functional

Voltage-gated inwardly rectifying potassium channel KCNH2, sequence (Q12809 whole entry): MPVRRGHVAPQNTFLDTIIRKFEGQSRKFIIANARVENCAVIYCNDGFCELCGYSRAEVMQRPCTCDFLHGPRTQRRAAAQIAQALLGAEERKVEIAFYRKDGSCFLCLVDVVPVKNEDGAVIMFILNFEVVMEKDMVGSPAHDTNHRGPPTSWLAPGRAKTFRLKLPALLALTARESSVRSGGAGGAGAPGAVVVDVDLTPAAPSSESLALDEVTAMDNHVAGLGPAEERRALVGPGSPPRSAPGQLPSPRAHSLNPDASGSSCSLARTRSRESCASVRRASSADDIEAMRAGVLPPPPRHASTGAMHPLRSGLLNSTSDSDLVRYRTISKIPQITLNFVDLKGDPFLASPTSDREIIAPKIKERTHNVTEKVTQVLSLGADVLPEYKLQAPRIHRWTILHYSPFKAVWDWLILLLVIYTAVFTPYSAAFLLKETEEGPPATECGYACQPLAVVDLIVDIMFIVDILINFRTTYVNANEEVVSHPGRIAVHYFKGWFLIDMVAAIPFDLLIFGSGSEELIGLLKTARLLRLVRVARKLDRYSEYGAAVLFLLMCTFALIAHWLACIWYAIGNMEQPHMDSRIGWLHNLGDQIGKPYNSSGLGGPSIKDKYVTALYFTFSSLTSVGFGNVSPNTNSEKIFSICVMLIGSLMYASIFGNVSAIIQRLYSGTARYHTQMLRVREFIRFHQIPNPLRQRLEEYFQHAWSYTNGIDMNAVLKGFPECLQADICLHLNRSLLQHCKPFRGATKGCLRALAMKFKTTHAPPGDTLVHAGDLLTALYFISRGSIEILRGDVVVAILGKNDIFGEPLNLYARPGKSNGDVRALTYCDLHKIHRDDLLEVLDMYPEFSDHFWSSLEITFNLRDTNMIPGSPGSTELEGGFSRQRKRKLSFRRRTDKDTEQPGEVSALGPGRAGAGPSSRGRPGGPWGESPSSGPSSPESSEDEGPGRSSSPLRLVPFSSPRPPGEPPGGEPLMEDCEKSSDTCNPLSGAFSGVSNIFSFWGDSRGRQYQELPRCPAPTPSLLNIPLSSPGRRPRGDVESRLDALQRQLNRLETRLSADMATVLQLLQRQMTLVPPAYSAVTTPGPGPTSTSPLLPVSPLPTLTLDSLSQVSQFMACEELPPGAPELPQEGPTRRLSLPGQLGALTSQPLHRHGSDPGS

SMILES: CCOc1ccc(-c2cncnc2-c2cc(OC)c(OC)c(OC)c2)cc1Cl
- Activity [1]: 0.59
- Activity (HeLa [2]): 3%
- Activity [3]: Non-Toxic
- Activity (HeLa [4]): 22.7%
- Activity (HeLa [5]): 16.6%
- Activity (HeLa [6]): 3.98%
- Activity [7]: 31%
- Activity (HeLa [8]): 47.6%
- Activity (HeLa [9]): 2.18 g
- half-life [10]: 1.56 h
- Activity [11]: Non-Toxic
- Activity [12]: Non-Toxic
- pIC50 [13]: 4.65
- Ratio IC50 (SiHa): 2.7
- Activity (HeLa [14]): 84.4%
- Activity (HeLa [15]): 13%
- Activity (HeLa [16]): 36.8%
- AUC(0-t) [17]: 5610 ng·h/mL
- Activity [18]: 16%
- Activity [19]: Toxic
- Activity (HeLa [20]): 100%
- MRT [21]: 1.77 h
- AUC(0-inf) [22]: 5940 ng·h/mL
- Activity [23]: Non-Toxic
- viability at 0.1 µM (HeLa [24]): 56.3%

SMILES: COc1ccc(/C=C\c2cc(OC)c(OC)c(OC)c2)cc1O [COMBRETASTATIN A4]
- Activity (HeLa [25]): 15.9%
- Activity (HeLa [26]): 17%
- viability at 0.006 µM (HeLa [27]): 19.2%
- Activity (HeLa [28]): 35.3%
- Activity (HeLa [29]): 23.5%
- Activity (HeLa [30]): 10.8%
- Activity (HeLa [31]): 12%
- Activity (HeLa [32]): 73%
